In ChEMBL document CHEMBL1201862, “PubChem BioAssay data set” (2004):
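All cell lines were grown in 96-well plates and treated with compound for 48 hours. Abbreviation: GI50, concentration required for 50% inhibition of growth.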 Active and inactive are the calls of the source. Rule as the data show it: active = GI50 up to about 1.1 µM and inactive = higher.

Assays:
Assay in all cases: NCI anticancer screen, dose series, 48 h
CCRF-CEM = test system: CCRF-CEM
MDA-MB-231 = test system: MDA-MB-231
SK-MEL-28 = test system: SK-MEL-28
SK-MEL-2 = test system: SK-MEL-2
NCI-H23 = test system: NCI-H23
T47D = test system: T47D
SF-268 = test system: SF-268
HCT-15 = test system: HCT-15
PC-3 = test system: PC-3
LOX IMVI = test system: LOX IMVI
OVCAR-5 = test system: OVCAR-5
OVCAR-4 = test system: OVCAR-4
Malme-3M = test system: Malme-3M
MOLT-4 = test system: MOLT-4
IGROV-1 = test system: IGROV-1
EKVX = test system: EKVX
HL-60 = test system: HL-60
HCC 2998 = test system: HCC 2998
M14 = test system: M14
SK-OV-3 = test system: SK-OV-3
BT-549 = test system: BT-549
CAKI-1 = test system: CAKI-1
SN12C = test system: SN12C
UO-31 = test system: UO-31
HCT-116 = test system: HCT-116
ACHN = test system: ACHN
RXF 393 = test system: RXF 393
NCI-H226 = test system: NCI-H226
K562 = test system: K562
SK-MEL-5 = test system: SK-MEL-5
TK-10 = test system: TK-10
NCI/ADR-RES = test system: NCI/ADR-RES
MDA-N = test system: MDA-N
HOP-62 = test system: HOP-62
OVCAR-8 = test system: OVCAR-8
SR = test system: SR
HT-29 = test system: HT-29
SNB-19 = test system: SNB-19
SF-295 = test system: SF-295
UACC-62 = test system: UACC-62
Hs-578T = test system: Hs-578T
KM12 = test system: KM12
786-0 = test system: 786-0
NCI-H460 = test system: NCI-H460
SNB-75 = test system: SNB-75
SW-620 = test system: SW-620
NCI-H522 = test system: NCI-H522
DU-145 = test system: DU-145
MDA-MB-435 = test system: MDA-MB-435
UACC-257 = test system: UACC-257
A549 = test system: A549
RPMI-8226 = test system: RPMI-8226
U-251 = test system: U-251
MCF7 = test system: MCF7
OVCAR-3 = test system: OVCAR-3
COLO 205 = test system: COLO 205

For `CC(Cc1ccc2c(c1)OCO2)N(C)C(=O)C1=CCN(C)CC1` (stereo unspecified), the GI50 (CCRF-CEM) was > 100 µM (inactive), the GI50 (MDA-MB-231) was > 100 µM (inactive) and the GI50 (SK-MEL-28) was > 100 µM (inactive). For the same compound, the GI50 (SK-MEL-2) was > 100 µM (inactive), the GI50 (NCI-H23) was > 100 µM (inactive) and the GI50 (T47D) was > 100 µM (inactive). The GI50 (SF-268) was > 100 µM (inactive), the GI50 (HCT-15) was > 100 µM and the GI50 (PC-3) was > 100 µM (inactive). The GI50 (LOX IMVI) was > 100 µM (inactive), the GI50 (OVCAR-5) was > 100 µM (inactive) and the GI50 (OVCAR-4) was > 100 µM (inactive). For the same compound, the GI50 (Malme-3M) was > 100 µM (inactive), the GI50 (MOLT-4) was > 100 µM (inactive) and the GI50 (IGROV-1) was > 100 µM (inactive). For the same compound, the GI50 (EKVX) was > 100 µM (inactive), the GI50 (HL-60) was > 100 µM (inactive) and the GI50 (HCC 2998) was > 100 µM (inactive). The GI50 (M14) was > 100 µM (inactive), the GI50 (SK-OV-3) was > 100 µM (inactive) and the GI50 (BT-549) was > 100 µM (inactive). For the same compound, the GI50 (CAKI-1) was > 100 µM (inactive), the GI50 (SN12C) was > 100 µM (inactive) and the GI50 (UO-31) was > 100 µM (inactive). The GI50 (HCT-116) was > 100 µM (inactive), the GI50 (ACHN) was > 100 µM (inactive) and the GI50 (RXF 393) was > 100 µM (inactive). The GI50 (NCI-H226) was > 100 µM (inactive), the GI50 (K562) was > 100 µM (inactive) and the GI50 (SK-MEL-5) was > 100 µM (inactive). For the same compound, the GI50 (TK-10) was > 100 µM (inactive), the GI50 (NCI/ADR-RES) was > 100 µM (inactive) and the GI50 (MDA-N) was > 100 µM (inactive). For the same compound, the GI50 (HOP-62) was > 100 µM (inactive), the GI50 (OVCAR-8) was > 100 µM (inactive) and the GI50 (SR) was > 100 µM (inactive). The GI50 (HT-29) was > 100 µM (inactive), the GI50 (SNB-19) was > 100 µM (inactive) and the GI50 (SF-295) was > 100 µM (inactive). For the same compound, the GI50 (UACC-62) was > 100 µM (inactive), the GI50 (Hs-578T) was > 100 µM (inactive) and the GI50 (KM12) was > 100 µM (inactive). For the same compound, the GI50 (786-0) was > 100 µM (inactive), the GI50 (NCI-H460) was > 100 µM (inactive) and the GI50 (SNB-75) was 46.2 µM (inactive). The GI50 (SW-620) was > 100 µM (inactive), the GI50 (NCI-H522) was > 100 µM (inactive) and the GI50 (DU-145) was > 100 µM (inactive). For the same compound, the GI50 (MDA-MB-435) was > 100 µM (inactive), the GI50 (UACC-257) was > 100 µM (inactive) and the GI50 (A549) was > 100 µM (inactive). The GI50 (RPMI-8226) was > 100 µM (inactive), the GI50 (U-251) was > 100 µM (inactive) and the GI50 (MCF7) was > 100 µM (inactive). The GI50 (OVCAR-3) was > 100 µM (inactive) and the GI50 (COLO 205) was > 100 µM (inactive).
